The assay concerns mice. The assay can be described thus: Neuropharmacological Assay (SmartCube). It counts as in vivo. The conditions noted are these: for minimal effective dose: Mus musculus, read-out: POTENCY (minimal effective dose, MED); for AD: ADHD (SmartCube probability) / AG: analgesic (SmartCube probability) / AX: anxiolytic (SmartCube probability) / CE: cognitive enhancer (SmartCube probability) / DP: anti-depressant (SmartCube probability) / MS: mood stabilizer (SmartCube probability) / PS: anti-psychotic (SmartCube probability) / SD: sedative hypnotic (SmartCube probability) / UN: uncharacterized CNS activity (SmartCube probability): mice, i.p. 15 min before test, most efficacious dose(s) of 3 doses. In a few lines:
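Behavior of treated mice captured by digital video and matched algorithmically against reference drug classes, yielding a class probability at the most efficacious of 3 i.p. doses (15 min pretreatment, NMP/PEG/propylene glycol vehicle). Potency given as MED, the mpk dose reaching ≥50% total activity across usually 0.3–30 mpk.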

[1] abbreviates: MED = dose having 50% or more total activity in SmartCube.

The term minimal effective dose denotes the lowest level tested that produced the effect sought.

Read-outs that look alike come from different tables or passages of the source.

Consider `NC[C@@H]1OCCc2cccc(F)c21` [Example 35, (R)-(8-fluoroisochroman-1-yl)methanamine], for which the “AD: ADHD (SmartCube probability)” value was “++ (5%≤ ++ <25%)”, the “AG: analgesic (SmartCube probability)” value was “++ (5%≤ ++ <25%)”, the “AX: anxiolytic (SmartCube probability)” value is recorded as “++ (5%≤ ++ <25%)” and the “CE: cognitive enhancer (SmartCube probability)” value (“CE: cognitive enhancer” for short) was “++ (5%≤ ++ <25%)”. Besides, the “DP: anti-depressant (SmartCube probability)” value (from here on “DP: anti-depressant”) is listed as “++++ (50%≤ ++++)”, the “MS: mood stabilizer (SmartCube probability)” value (shortened to “MS: mood stabilizer”) is given as “+ (LOQ≤ + <5%)”, the “PS: anti-psychotic (SmartCube probability)” value (“PS: anti-psychotic” below) is listed as “++ (5%≤ ++ <25%)” and the “SD: sedative hypnotic (SmartCube probability)” value (“SD: sedative hypnotic” for short) is on record as “++ (5%≤ ++ <25%)”. For the same compound, the “UN: uncharacterized CNS activity (SmartCube probability)” value (“UN: uncharacterized CNS activity” for short) is reported as “++++ (50%≤ ++++)”. Under setting [1], the minimal effective dose is < 3 mg/kg.

Turning to `CNC[C@H]1OCCc2ccc3c(c21)OC(F)(F)O3` [Example 102, (S)-1-(2,2-difluoro-6,9-dihydro-7H-[1,3]dioxolo[4,5-h]isochromen-9-yl)-N-methylmethanamine], the “AD: ADHD (SmartCube probability)” value is given as “+ (LOQ≤ + <5%)”, the “AG: analgesic (SmartCube probability)” value is on record as “++ (5%≤ ++ <25%)”, the “AX: anxiolytic (SmartCube probability)” value was “++ (5%≤ ++ <25%)” and the “CE: cognitive enhancer” value is reported as “+ (LOQ≤ + <5%)”. For the same compound, the “DP: anti-depressant” value was “++ (5%≤ ++ <25%)”, the “MS: mood stabilizer” value is given as “+ (LOQ≤ + <5%)”, the “PS: anti-psychotic” value is “+ (LOQ≤ + <5%)” and the “SD: sedative hypnotic” value was “+ (LOQ≤ + <5%)”. The “UN: uncharacterized CNS activity” value is given as “+++ (25%≤ +++ <50%)”. Besides, the minimal effective dose under setting [1] lay in the range of 10 to 30 mg/kg.

As for `CNC[C@@H]1OC[C@@H](O)c2ccc3c(c21)OCO3` (single isomer, unassigned) [Example 111], the “AD: ADHD (SmartCube probability)” value is “+ (LOQ≤ + <5%)”, the “AG: analgesic (SmartCube probability)” value is given as “+ (LOQ≤ + <5%)”, the “AX: anxiolytic (SmartCube probability)” value is on record as “++ (5%≤ ++ <25%)” and the “CE: cognitive enhancer” value is “+ (LOQ≤ + <5%)”. In addition, the “DP: anti-depressant” value is given as “++++ (50%≤ ++++)”, the “MS: mood stabilizer” value is given as “+ (LOQ≤ + <5%)”, the “PS: anti-psychotic” value was “++ (5%≤ ++ <25%)” and the “SD: sedative hypnotic” value was “+ (LOQ≤ + <5%)”. Moreover, the “UN: uncharacterized CNS activity” value was “+ (LOQ≤ + <5%)”. For the same compound, the minimal effective dose under setting [1] lay in the range of 10 to 30 mg/kg.

Regarding `CNC[C@@H]1OCCc2c(C#N)cccc21` [Example 47, (R)-1-((methylamino)methyl)isochromane-5-carbonitrile], the “AD: ADHD (SmartCube probability)” value is listed as “+ (LOQ≤ + <5%)”, the “AG: analgesic (SmartCube probability)” value is “+ (LOQ≤ + <5%)”, the “AX: anxiolytic (SmartCube probability)” value is listed as “++ (5%≤ ++ <25%)” and the “CE: cognitive enhancer” value is “+ (LOQ≤ + <5%)”. For the same compound, the “DP: anti-depressant” value is recorded as “++++ (50%≤ ++++)”, the “MS: mood stabilizer” value is listed as “+ (LOQ≤ + <5%)”, the “PS: anti-psychotic” value is “++ (5%≤ ++ <25%)” and the “SD: sedative hypnotic” value was “++ (5%≤ ++ <25%)”. Moreover, the “UN: uncharacterized CNS activity” value was “++ (5%≤ ++ <25%)”. Also, the minimal effective dose under setting [1] was in the range of 3 to 10 mg/kg.

`CNC[C@@H]1OC[C@H](F)c2ccccc21` [Example 22, 1-((1R,4R)-4-fluoroisochroman-1-yl)-N-methylmethanamine]: the “AD: ADHD (SmartCube probability)” value is “+ (LOQ≤ + <5%)”, the “AG: analgesic (SmartCube probability)” value is reported as “++ (5%≤ ++ <25%)”, the “AX: anxiolytic (SmartCube probability)” value is “++ (5%≤ ++ <25%)” and the “CE: cognitive enhancer” value is “++ (5%≤ ++ <25%)”. Further, the “DP: anti-depressant” value is “+++ (25%≤ +++ <50%)”, the “MS: mood stabilizer” value is “++ (5%≤ ++ <25%)”, the “PS: anti-psychotic” value is listed as “+++ (25%≤ +++ <50%)” and the “SD: sedative hypnotic” value was “++ (5%≤ ++ <25%)”. The “UN: uncharacterized CNS activity” value is listed as “+ (LOQ≤ + <5%)”. In addition, the minimal effective dose under setting [1] is < 3 mg/kg.

For `CCNC[C@@H]1OCCc2cccc(F)c21` [Example 87, (R)-N-((8-fluoroisochroman-1-yl)methyl)ethanamine], the “AD: ADHD (SmartCube probability)” value is “+ (LOQ≤ + <5%)”, the “AG: analgesic (SmartCube probability)” value was “++ (5%≤ ++ <25%)”, the “AX: anxiolytic (SmartCube probability)” value is listed as “++ (5%≤ ++ <25%)” and the “CE: cognitive enhancer” value is recorded as “+ (LOQ≤ + <5%)”. The “DP: anti-depressant” value is listed as “++ (5%≤ ++ <25%)”, the “MS: mood stabilizer” value is “+ (LOQ≤ + <5%)”, the “PS: anti-psychotic” value is reported as “++ (5%≤ ++ <25%)” and the “SD: sedative hypnotic” value was “+ (LOQ≤ + <5%)”. Further, the “UN: uncharacterized CNS activity” value is reported as “++++ (50%≤ ++++)”. The minimal effective dose under setting [1] was < 3 mg/kg.

Consider `CNC[C@@H]1OCCc2ccc3c(c21)OC(F)(F)O3` [Example 101, (R)-1-(2,2-difluoro-6,9-dihydro-7H-[1,3]dioxolo[4,5-h]isochromen-9-yl)-N-methylmethanamine], for which the “AD: ADHD (SmartCube probability)” value is given as “+ (LOQ≤ + <5%)”, the “AG: analgesic (SmartCube probability)” value is on record as “+++ (25%≤ +++ <50%)”, the “AX: anxiolytic (SmartCube probability)” value is “++ (5%≤ ++ <25%)” and the “CE: cognitive enhancer” value was “++ (5%≤ ++ <25%)”. Further, the “DP: anti-depressant” value is recorded as “+ (LOQ≤ + <5%)”, the “MS: mood stabilizer” value is listed as “+ (LOQ≤ + <5%)”, the “PS: anti-psychotic” value is “++ (5%≤ ++ <25%)” and the “SD: sedative hypnotic” value is “+ (LOQ≤ + <5%)”. Also, the “UN: uncharacterized CNS activity” value is recorded as “+ (LOQ≤ + <5%)”. The minimal effective dose under setting [1] lay in the range of 3 to 10 mg/kg.

Regarding `Fc1cccc2c1[C@H](CNC1CCC1)OCC2` [Example 97, (R)-N-((8-fluoroisochroman-1-yl)methyl)cyclobutanamine], the minimal effective dose fell in the range of 3 to 10 mg/kg, the “AD: ADHD (SmartCube probability)” value was “++ (5%≤ ++ <25%)”, the “AG: analgesic (SmartCube probability)” value is recorded as “+ (LOQ≤ + <5%)” and the “AX: anxiolytic (SmartCube probability)” value is “++ (5%≤ ++ <25%)”. Also, the “CE: cognitive enhancer” value is reported as “+ (LOQ≤ + <5%)”, the “DP: anti-depressant” value was “+++ (25%≤ +++ <50%)”, the “MS: mood stabilizer” value was “+ (LOQ≤ + <5%)” and the “PS: anti-psychotic” value is “++ (5%≤ ++ <25%)”. Moreover, the “SD: sedative hypnotic” value is reported as “+ (LOQ≤ + <5%)” and the “UN: uncharacterized CNS activity” value is recorded as “+++ (25%≤ +++ <50%)”.

In the case of `NC[C@@H]1OCCc2cccc(Cl)c21` [Example 71, (R)-(8-chloroisochroman-1-yl)methanamine], the “AD: ADHD (SmartCube probability)” value is on record as “+ (LOQ≤ + <5%)”, the “AG: analgesic (SmartCube probability)” value is on record as “++ (5%≤ ++ <25%)”, the “AX: anxiolytic (SmartCube probability)” value is “++ (5%≤ ++ <25%)” and the “CE: cognitive enhancer” value is recorded as “++ (5%≤ ++ <25%)”. Also, the “DP: anti-depressant” value was “+ (LOQ≤ + <5%)”, the “MS: mood stabilizer” value was “+ (LOQ≤ + <5%)”, the “PS: anti-psychotic” value is “++ (5%≤ ++ <25%)” and the “SD: sedative hypnotic” value is listed as “+ (LOQ≤ + <5%)”. The “UN: uncharacterized CNS activity” value is “++++ (50%≤ ++++)”. Moreover, the minimal effective dose under setting [1] is < 3 mg/kg.

Consider `CNC[C@@H]1OCCc2cccc(C)c21` [Example 41, (R)-N-methyl-1-(8-methylisochroman-1-yl)methanamine], for which the “AD: ADHD (SmartCube probability)” value is given as “+ (LOQ≤ + <5%)”, the “AG: analgesic (SmartCube probability)” value is “++ (5%≤ ++ <25%)”, the “AX: anxiolytic (SmartCube probability)” value is given as “++ (5%≤ ++ <25%)” and the “CE: cognitive enhancer” value is on record as “+ (LOQ≤ + <5%)”. In addition, the “DP: anti-depressant” value is on record as “++ (5%≤ ++ <25%)”, the “MS: mood stabilizer” value is given as “+ (LOQ≤ + <5%)”, the “PS: anti-psychotic” value is “++++ (50%≤ ++++)” and the “SD: sedative hypnotic” value is “++ (5%≤ ++ <25%)”. Also, the “UN: uncharacterized CNS activity” value is recorded as “++++ (50%≤ ++++)”. In addition, the minimal effective dose under setting [1] was < 3 mg/kg.

Consider `CNC[C@H]1OC[C@@H](F)c2ccccc21` [Example 21, 1-((1S,4S)-4-fluoroisochroman-1-yl)-N-methylmethanamine], for which the “AD: ADHD (SmartCube probability)” value is on record as “+ (LOQ≤ + <5%)”, the “AG: analgesic (SmartCube probability)” value is listed as “+++ (25%≤ +++ <50%)”, the “AX: anxiolytic (SmartCube probability)” value is on record as “++ (5%≤ ++ <25%)” and the “CE: cognitive enhancer” value was “++ (5%≤ ++ <25%)”. In addition, the “DP: anti-depressant” value is “++ (5%≤ ++ <25%)”, the “MS: mood stabilizer” value is “+ (LOQ≤ + <5%)”, the “PS: anti-psychotic” value is listed as “++ (5%≤ ++ <25%)” and the “SD: sedative hypnotic” value is listed as “++ (5%≤ ++ <25%)”. The “UN: uncharacterized CNS activity” value is on record as “+++ (25%≤ +++ <50%)”. Also, under setting [1], the minimal effective dose lay in the range of 3 to 10 mg/kg.

Turning to `CNC[C@H]1OCCc2c(Cl)cccc21` [Example 32, (S)-1-(5-chloroisochroman-1-yl)-N-methylmethanamine], the “AD: ADHD (SmartCube probability)” value is reported as “+ (LOQ≤ + <5%)”, the “AG: analgesic (SmartCube probability)” value is given as “+ (LOQ≤ + <5%)”, the “AX: anxiolytic (SmartCube probability)” value is given as “++ (5%≤ ++ <25%)” and the “CE: cognitive enhancer” value is given as “++ (5%≤ ++ <25%)”. Moreover, the “DP: anti-depressant” value is on record as “++ (5%≤ ++ <25%)”, the “MS: mood stabilizer” value is “+ (LOQ≤ + <5%)”, the “PS: anti-psychotic” value is reported as “++ (5%≤ ++ <25%)” and the “SD: sedative hypnotic” value is listed as “+ (LOQ≤ + <5%)”. Besides, the “UN: uncharacterized CNS activity” value is “+ (LOQ≤ + <5%)”. Further, under setting [1], the minimal effective dose lay within 10 to 30 mg/kg.

(Values after US10196403B2, “Compounds and compositions and uses thereof” (Sunovion Pharmaceuticals Inc., priority 2016, dated 2019).)
